Measurements taken from patent US5472684A, “Oral compositions for plaque and gingivitis” (Colgate Palmolive Company, priority 1993, dated 1995).
Like-named read-outs stand apart in the source and are kept apart here.

Experiments:
Actinomyces viscosus = experiment: MIC of natural flavoring agents vs. A. viscosus, standard serial dilution method; format: cell-based; conditions: for MIC: Actinomyces viscosus, read-out: Antibacterial Activity vs. A. viscosus MIC; for antibacterial activity against A. viscosus (in words): from MIC data of Table 1
Method: The antibacterial activities of a number of natural flavoring agents were evaluated against Actinomyces viscosus, a dental plaque bacterium, by measuring the minimum inhibitory concentration (hereinafter referred to as MIC) of the respective agents in vitro according to the standard serial dilution method delineated in N. Nabi et al., Am. J. Dent. 2: 197:206, 1989 which is incorporated herein by reference. The MIC is defined for the purpose of this invention to mean the concentration of a particular agent at which no bacterial growth was observed. The natural flavoring agents used were obtained from commercial sources available in organic or aqueous solvents. The antibacterial compound, Triclosan, was used as a positive Control. Triclosan is 2,4,4'-trichloro-2'-hydroxydiphenyl ether.

Plaque [1] = experiment: 4-day plaque regrowth in a clinical study in humans, plaque area; format: in vivo
Method: (§1) The efficacy of natural product rinse on the reduction of plaque was evaluated in a clinical study in humans. The study was randomized, blind, 3 cells cross-over design to measure the effects of each rinse on 4 day plaque growth from a zero baseline. […] On the other hand, 0.2% chlorhexidine rinse, clinically proven for plaque and gingivitis effect, inhibited 48.0% and 78.0% regrowth of plaque measured by score and area, respectively under similar conditions.

Plaque [2] = experiment: 4-day plaque regrowth in a clinical study in humans, plaque score; format: in vivo
Method: as §1

[3] = system: bacterial plaque formation; experiment: Chemostat Plaque Model in vitro (flow cell system, artificial mouth); format: cell-based; conditions: about 0.5 wt % eucalyptol or about 0.01 wt. % sage oil added to rinse (2)
Method: The effect of natural product rinse (2) to inhibit bacterial plaque formation in vitro was assessed using the Chemostat Plaque Model according to methods of A. Gaffar et al. described in Am. J. Dent., 3, p. S7-S14, 1990. This in vitro model simulates the actual saliva and tooth surface interactions with respect to the plaque formation in the mouth and assesses the interactions, at biophysical and surface chemical level, of saliva-coated bacteria to saliva-coated surfaces with a surface energy similar to dental enamel.

plaque and gingivitis = conditions: toothpaste and mouthrinse containing Triclosan, humans; cited from earlier work
[4] = in vitro, serial dilution, concentration at which no bacterial growth was observed
[5] = 4-day plaque regrowth, rinsed twice daily, fifteen volunteers
[6] = after 4 days, compared with 0.9% saline rinse, p < 0.001

In the case of `CC(C)=CCCC(C)=CCCC(C)=CCO` [Farnesol], the MIC (Actinomyces viscosus; [4]) is reported as 25 µg/mL, the “antibacterial activity against A. viscosus (in words)” value (from here on “antibacterial activity”) (Actinomyces viscosus) is reported as “excellent antibacterial activity equivalent to thymol or eugenol” and the “antibacterial activity” value (Actinomyces viscosus; listed as farnesol) is reported as “most active”.
With `[H]/N=C(\N/C(=N/[H])NCCCCCCNC(=N)NC(=N)Nc1ccc(Cl)cc1)Nc1ccc(Cl)cc1` [Chlorhexidine] the “Plaque Area” value (Plaque [1]; [5]) was 0.069 +/- 0.055, the “Plaque Reduction % (plaque area)” value (Plaque [1]; [6]) was 78.0% and the “Plaque Score” value (Plaque [2]; [5]) was 0.128 +/- 0.068. The “Plaque Reduction % (plaque score)” value (Plaque [2]; [6]) was 48.0%.
In the case of `CC12CCC(CC1)C(C)(C)O2` [eucalyptol], the “antiplaque activity on addition to natural product rinse (2) (in words)” value [3] is reported as “increases the antiplaque activity”.
For `Oc1cc(Cl)ccc1Oc1ccc(Cl)cc1Cl` [Triclosan, 2,4,4'-trichloro-2'-hydroxydiphenyl ether, reference compound], the MIC (Actinomyces viscosus) is given as 5 µg/mL and the “effect on plaque and gingivitis (in words)” value (plaque and gingivitis) is given as “reduce plaque and gingivitis”.
For `Cc1ccc(C(C)C)c(O)c1` [Thymol], the MIC (Actinomyces viscosus; [4]) was 25 µg/mL and the “antibacterial activity” value (Actinomyces viscosus) was “most active”.
For `C=CCc1ccc(O)c(OC)c1` [Eugenol], the MIC (Actinomyces viscosus; [4]) was 25 µg/mL and the “antibacterial activity” value (Actinomyces viscosus) was “most active”.
